{"source": "ChEMBL document CHEMBL1201862", "about": "“PubChem BioAssay data set” (2004)", "key": {"Phosphomannomutase 2": {"molecular_target": "T1, Phosphomannomutase 2 (Homo sapiens, UniProt O15305)", "T1 sequence (O15305 whole entry)": "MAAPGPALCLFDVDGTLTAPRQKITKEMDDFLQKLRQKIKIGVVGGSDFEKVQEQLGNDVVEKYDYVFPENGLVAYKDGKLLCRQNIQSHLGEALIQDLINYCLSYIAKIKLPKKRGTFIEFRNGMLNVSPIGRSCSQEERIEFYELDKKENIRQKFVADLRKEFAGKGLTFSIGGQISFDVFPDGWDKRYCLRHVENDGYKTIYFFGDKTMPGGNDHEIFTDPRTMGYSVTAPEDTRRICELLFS", "test": "Counter screen SAR assay for PMM2 inhibitors via a fluorescence intensity assay. [Related pubchem assays (depositor defined):AID1545, AID1574]"}, "[1]": {"molecular_target": "T2, Mannose-6-phosphate isomerase (Homo sapiens, UniProt P34949)", "T2 sequence (P34949 whole entry)": "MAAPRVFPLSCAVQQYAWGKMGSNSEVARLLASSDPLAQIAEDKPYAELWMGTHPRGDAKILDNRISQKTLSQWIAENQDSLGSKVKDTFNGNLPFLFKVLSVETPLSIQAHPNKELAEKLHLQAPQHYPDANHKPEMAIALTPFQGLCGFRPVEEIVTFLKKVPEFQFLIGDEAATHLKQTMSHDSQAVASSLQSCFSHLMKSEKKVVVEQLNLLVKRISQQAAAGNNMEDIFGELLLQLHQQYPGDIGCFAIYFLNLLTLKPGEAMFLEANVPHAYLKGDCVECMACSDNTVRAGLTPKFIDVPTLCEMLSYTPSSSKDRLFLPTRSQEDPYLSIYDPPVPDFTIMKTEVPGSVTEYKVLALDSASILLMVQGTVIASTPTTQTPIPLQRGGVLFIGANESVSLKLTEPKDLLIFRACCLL", "test": "phosphomannose isomerase inhibition – biochemical, fluorescence intensity, confirmation (AID 1535)"}, "[2]": {"molecular_target": "T3, Short transient receptor potential channel 4 (Mus musculus, UniProt Q9QUQ5)", "T3 sequence (Q9QUQ5 whole entry)": "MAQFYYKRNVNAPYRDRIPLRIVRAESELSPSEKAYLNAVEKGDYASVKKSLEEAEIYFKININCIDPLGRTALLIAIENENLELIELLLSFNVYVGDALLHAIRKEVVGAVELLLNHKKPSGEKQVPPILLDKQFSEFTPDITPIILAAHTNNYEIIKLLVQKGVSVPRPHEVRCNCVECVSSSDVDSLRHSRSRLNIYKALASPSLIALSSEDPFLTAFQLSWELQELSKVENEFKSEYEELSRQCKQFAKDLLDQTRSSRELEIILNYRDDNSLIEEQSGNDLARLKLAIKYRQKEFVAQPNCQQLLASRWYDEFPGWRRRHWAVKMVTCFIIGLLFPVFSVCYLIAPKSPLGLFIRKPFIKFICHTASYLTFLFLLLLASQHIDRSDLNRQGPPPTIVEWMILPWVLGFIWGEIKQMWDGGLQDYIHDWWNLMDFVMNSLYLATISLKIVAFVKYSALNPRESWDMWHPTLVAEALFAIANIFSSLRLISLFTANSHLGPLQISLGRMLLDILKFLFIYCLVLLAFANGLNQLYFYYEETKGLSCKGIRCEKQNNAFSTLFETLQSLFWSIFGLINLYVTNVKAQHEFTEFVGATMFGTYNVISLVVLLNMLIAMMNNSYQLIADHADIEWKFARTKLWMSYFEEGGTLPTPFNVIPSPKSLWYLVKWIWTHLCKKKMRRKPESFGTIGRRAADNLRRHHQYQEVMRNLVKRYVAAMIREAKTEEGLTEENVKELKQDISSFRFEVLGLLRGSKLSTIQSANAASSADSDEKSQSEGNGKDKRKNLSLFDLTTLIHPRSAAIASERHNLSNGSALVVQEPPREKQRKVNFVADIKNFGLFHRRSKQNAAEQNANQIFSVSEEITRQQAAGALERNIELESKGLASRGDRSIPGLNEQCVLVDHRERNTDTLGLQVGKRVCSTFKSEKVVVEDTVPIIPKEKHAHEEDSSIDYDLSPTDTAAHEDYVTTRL", "test": "calcium entry via TRPC4 opening agents – cell-based, HEK293 TRPC4/mu-opioid, Fluo-4 calcium, dose response (AID 434937)", "format": "functional"}, "[3]": {"molecular_target": "T4, Adenosylmethionine-8-amino-7-oxononanoate aminotransferase (Mycobacterium tuberculosis, UniProt P9WQ81)", "T4 sequence (P9WQ81 whole entry)": "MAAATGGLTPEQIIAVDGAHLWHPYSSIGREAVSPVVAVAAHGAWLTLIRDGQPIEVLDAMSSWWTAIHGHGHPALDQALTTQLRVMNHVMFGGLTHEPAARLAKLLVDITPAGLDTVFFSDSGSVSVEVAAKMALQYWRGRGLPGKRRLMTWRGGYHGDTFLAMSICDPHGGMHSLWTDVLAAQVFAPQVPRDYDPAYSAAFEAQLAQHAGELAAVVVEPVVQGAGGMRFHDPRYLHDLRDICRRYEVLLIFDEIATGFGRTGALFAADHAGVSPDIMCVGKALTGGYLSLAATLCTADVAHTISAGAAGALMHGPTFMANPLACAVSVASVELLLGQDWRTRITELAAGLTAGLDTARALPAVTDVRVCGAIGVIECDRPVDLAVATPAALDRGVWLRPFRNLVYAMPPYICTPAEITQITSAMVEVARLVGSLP", "test": "Mycobacterium tuberculosis BioA enzyme inhibitor Measured in Biochemical System Using Plate Reader - 2163-02_Inhibitor_Dose_CherryPick_Activity.", "format": "functional, Mycobacterium tuberculosis UT205"}, "Fatty acid synthase [4]": {"molecular_target": "T5, Fatty acid synthase (Homo sapiens, UniProt P49327)", "T5 sequence (P49327 whole entry)": "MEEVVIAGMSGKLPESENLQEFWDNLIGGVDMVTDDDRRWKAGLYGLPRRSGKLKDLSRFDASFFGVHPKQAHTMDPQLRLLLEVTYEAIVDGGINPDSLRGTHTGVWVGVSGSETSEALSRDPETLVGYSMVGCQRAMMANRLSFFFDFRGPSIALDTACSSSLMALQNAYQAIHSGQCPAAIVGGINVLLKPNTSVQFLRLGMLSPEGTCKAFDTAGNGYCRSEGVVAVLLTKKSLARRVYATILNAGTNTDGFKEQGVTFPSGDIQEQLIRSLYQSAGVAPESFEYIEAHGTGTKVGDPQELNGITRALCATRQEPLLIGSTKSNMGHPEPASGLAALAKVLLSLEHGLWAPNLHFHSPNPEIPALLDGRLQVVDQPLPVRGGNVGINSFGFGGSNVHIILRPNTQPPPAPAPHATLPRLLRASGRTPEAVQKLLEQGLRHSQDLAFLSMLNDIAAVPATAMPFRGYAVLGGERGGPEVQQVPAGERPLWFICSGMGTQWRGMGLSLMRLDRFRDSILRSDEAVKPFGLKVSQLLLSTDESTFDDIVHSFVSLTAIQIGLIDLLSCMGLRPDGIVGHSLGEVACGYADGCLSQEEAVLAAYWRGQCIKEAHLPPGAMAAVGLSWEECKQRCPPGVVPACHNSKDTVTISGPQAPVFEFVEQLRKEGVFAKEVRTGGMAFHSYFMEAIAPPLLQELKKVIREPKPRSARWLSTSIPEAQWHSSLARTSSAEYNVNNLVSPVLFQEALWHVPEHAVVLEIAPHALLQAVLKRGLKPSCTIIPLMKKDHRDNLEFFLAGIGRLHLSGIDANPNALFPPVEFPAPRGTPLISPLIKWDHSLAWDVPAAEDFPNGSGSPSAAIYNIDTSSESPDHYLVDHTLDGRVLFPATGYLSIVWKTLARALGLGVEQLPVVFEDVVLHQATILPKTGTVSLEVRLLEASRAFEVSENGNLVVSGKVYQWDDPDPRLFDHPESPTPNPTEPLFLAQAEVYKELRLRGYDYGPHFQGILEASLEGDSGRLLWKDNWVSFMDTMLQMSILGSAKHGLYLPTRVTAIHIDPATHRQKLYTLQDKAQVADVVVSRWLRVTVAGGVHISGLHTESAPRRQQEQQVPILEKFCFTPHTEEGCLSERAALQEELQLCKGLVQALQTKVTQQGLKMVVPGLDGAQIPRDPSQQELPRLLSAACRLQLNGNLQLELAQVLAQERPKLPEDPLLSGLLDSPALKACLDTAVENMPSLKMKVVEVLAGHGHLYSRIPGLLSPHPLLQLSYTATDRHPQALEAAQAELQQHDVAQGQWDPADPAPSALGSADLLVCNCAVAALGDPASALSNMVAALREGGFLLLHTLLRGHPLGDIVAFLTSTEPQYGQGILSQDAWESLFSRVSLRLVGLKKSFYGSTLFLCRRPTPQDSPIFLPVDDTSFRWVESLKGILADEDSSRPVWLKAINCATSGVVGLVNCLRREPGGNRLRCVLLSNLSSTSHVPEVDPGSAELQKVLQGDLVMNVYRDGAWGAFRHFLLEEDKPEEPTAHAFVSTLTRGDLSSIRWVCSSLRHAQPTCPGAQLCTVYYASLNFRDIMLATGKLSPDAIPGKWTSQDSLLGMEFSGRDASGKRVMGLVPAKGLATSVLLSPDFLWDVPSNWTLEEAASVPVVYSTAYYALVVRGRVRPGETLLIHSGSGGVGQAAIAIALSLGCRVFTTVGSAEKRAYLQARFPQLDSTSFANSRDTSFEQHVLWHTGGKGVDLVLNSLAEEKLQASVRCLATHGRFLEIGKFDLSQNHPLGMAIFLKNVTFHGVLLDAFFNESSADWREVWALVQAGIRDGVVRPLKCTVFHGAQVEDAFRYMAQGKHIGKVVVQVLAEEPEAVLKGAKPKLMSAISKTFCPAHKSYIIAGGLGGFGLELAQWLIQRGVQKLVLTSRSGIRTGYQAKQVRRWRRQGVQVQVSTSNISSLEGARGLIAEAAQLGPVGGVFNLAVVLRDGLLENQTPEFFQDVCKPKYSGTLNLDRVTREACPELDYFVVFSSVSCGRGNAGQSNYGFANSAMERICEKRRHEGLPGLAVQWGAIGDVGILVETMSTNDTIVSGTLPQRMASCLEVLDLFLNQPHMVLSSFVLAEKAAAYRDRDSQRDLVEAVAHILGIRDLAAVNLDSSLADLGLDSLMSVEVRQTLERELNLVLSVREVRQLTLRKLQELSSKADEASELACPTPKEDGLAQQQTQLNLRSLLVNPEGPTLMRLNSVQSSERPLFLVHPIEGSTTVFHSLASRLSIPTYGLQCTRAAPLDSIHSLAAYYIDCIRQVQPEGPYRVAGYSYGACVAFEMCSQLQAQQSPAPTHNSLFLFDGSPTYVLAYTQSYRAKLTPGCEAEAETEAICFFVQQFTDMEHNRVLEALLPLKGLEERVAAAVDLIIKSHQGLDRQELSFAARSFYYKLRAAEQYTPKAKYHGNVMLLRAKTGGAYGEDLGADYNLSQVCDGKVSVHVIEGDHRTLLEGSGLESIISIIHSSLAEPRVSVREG", "test": "inhibition of human FAS-TE enzyme activity – biochemical, endpoint fluorescence intensity, uHTS hits, dose response (AID 624327);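 also: fluorescence from hydrolysis of an O-methyl fluorescein acyl ester substrate by the enzyme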", "format": "functional"}, "Fatty acid synthase [5]": {"molecular_target": "T5, Fatty acid synthase", "test": "inhibition of human FAS-TE enzyme activity – biochemical, kinetic fluorescence intensity, dose response (AID 624326);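 also: rate of fluorescence rise from hydrolysis of a fluorogenic O-methyl fluorescein ester substrate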", "format": "functional"}, "[6]": {"molecular_target": "T6, RNA-binding protein pos-1 (Caenorhabditis elegans, UniProt G5EF15)", "T6 sequence (G5EF15 whole entry)": "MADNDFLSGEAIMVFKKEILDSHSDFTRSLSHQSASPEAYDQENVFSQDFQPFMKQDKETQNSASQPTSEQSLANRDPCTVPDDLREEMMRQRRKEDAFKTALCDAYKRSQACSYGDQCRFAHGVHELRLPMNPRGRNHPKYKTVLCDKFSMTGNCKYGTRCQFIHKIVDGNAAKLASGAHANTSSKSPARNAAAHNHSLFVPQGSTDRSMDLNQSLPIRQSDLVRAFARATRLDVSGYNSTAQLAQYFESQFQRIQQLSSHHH", "test": "disruptors of C. elegans POS-1 RNA interaction – biochemical, fluorescence polarization, dose response (AID 1964);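 also: purified POS-1 fused to maltose binding protein made in E. coli; potency of compounds blocking POS-1 binding to fluorescent RNA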"}, "Genome polyprotein": {"molecular_target": "Genome polyprotein (dengue virus type 2, UniProt P29990)", "test": "flavivirus cap methylation enzyme inhibition – biochemical, confirmation dose response, primary screen (AID 588689)", "format": "functional"}, "[7]": {"molecular_target": "T7, Zinc finger protein mex-5 (Caenorhabditis elegans, UniProt Q9XUB2)", "T7 sequence (Q9XUB2 whole entry)": "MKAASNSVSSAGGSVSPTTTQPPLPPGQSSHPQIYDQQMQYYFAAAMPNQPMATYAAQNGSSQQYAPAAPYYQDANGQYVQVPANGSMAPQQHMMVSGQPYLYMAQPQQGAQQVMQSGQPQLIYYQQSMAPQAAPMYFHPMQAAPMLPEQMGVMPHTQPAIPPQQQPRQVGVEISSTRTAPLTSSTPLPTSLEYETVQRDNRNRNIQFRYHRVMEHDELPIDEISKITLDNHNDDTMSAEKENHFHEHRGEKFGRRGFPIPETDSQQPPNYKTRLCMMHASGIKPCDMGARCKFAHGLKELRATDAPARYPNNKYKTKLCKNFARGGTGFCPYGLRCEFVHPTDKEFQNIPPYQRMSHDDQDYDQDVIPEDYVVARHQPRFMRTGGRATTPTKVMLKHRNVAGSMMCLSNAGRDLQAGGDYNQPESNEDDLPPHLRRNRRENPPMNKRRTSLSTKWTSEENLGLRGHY", "test": "potency of MEX-5 RNA-binding blockers – biochemical, C. elegans, fluorescence polarization, dose response (AID 1960)"}, "[8]": {"test": "intracellular Trypanosoma cruzi inhibitors in host cells – cell-based, plate reader, cherry-pick samples, set 3, dose response (AID 651818);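 also: compounds incubated with infected cells for about four days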", "format": "functional"}, "[9]": {"molecular_target": "Voltage-dependent T-type calcium channel subunit alpha-1H (Homo sapiens, UniProt O95180)", "sequence (O95180 whole entry)": "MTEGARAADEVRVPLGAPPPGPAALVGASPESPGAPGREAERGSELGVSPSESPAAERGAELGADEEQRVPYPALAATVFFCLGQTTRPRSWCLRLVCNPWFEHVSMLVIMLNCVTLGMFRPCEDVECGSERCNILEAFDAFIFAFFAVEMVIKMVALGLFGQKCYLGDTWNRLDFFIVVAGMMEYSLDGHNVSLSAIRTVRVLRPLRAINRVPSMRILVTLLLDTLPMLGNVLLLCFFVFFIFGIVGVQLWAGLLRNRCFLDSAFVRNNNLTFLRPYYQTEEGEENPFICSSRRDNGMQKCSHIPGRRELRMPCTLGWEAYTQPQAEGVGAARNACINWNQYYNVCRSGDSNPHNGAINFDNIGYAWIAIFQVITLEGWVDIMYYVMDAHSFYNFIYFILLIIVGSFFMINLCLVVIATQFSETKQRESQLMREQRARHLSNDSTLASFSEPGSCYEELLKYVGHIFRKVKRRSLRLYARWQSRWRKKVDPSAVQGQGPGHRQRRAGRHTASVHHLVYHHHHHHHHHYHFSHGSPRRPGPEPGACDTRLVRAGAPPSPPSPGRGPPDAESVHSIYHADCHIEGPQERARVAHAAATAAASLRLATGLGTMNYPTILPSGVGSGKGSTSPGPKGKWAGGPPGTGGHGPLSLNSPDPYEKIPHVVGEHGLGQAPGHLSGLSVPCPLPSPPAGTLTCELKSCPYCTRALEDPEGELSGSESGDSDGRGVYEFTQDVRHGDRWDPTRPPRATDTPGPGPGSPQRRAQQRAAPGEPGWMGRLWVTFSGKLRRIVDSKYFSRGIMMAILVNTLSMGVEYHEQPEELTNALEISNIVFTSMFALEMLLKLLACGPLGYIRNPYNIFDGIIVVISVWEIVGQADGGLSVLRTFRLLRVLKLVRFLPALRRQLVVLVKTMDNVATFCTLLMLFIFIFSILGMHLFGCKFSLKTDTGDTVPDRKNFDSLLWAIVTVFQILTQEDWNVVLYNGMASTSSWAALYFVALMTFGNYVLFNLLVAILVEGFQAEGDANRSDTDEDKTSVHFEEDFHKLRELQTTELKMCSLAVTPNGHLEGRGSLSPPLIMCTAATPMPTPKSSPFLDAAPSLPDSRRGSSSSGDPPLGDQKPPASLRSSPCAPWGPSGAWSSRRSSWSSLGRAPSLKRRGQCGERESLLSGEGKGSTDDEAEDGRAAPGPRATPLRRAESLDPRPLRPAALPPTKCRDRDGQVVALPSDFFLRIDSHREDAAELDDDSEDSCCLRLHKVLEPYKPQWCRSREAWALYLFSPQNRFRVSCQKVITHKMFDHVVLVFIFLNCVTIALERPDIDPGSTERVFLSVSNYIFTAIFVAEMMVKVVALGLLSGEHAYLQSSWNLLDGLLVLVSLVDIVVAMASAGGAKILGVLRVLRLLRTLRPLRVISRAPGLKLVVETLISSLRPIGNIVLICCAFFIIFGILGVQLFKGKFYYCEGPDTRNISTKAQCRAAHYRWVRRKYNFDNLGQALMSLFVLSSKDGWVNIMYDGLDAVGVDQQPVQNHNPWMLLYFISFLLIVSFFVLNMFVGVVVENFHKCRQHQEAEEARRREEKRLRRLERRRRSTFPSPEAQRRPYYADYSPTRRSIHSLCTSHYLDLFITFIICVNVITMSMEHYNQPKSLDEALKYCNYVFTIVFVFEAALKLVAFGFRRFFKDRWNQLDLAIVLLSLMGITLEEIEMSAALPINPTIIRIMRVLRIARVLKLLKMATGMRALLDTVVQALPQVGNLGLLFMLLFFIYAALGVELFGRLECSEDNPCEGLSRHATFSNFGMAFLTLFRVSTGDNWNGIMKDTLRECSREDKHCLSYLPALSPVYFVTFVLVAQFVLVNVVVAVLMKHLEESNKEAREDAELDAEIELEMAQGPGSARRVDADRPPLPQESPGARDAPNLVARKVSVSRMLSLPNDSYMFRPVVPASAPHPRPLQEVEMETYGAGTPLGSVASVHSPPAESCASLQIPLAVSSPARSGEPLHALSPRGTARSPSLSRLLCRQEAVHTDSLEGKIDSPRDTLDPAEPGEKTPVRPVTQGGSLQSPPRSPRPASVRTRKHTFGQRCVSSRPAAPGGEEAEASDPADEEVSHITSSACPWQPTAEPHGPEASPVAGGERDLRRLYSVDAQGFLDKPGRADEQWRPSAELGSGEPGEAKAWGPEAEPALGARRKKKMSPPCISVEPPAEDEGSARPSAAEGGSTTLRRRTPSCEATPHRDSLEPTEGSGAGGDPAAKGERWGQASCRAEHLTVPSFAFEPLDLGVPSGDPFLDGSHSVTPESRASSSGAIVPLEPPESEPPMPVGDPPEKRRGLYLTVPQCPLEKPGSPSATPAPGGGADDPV", "format": "functional"}}, "note": "The source made the active and inactive calls."}
{"smiles": "O=[N+]([O-])c1ccc(/N=c2\\ssnc2Cl)c2ccccc12", "values": [{"measurement": "IC50", "setting": "Phosphomannomutase 2", "result": "> 100 µM (inactive)"}, {"measurement": "IC50", "setting": "[1]", "result": "> 100 µM (inactive)"}]}
{"smiles": "Cc1csc2c(N3CCN(C(S)=Nc4ccc(C(F)(F)F)cc4)CC3)ncnc12", "values": [{"measurement": "EC50", "setting": "[2]", "result": "1.68 µM (active)"}]}
{"smiles": "CN(C)c1ccc(/N=c2\\ssnc2Cl)cc1", "values": [{"measurement": "IC50", "setting": "Phosphomannomutase 2", "result": "> 100 µM (inactive)"}, {"measurement": "IC50", "setting": "[1]", "result": "12.4 µM (active)"}]}
{"smiles": "COc1ccc([N+](=O)[O-])cc1C(=O)NC1CCN(Cc2ccccc2)CC1", "values": [{"measurement": "AC50", "setting": "[3]", "result": "2.3 µM (active)"}]}
{"smiles": "COc1cc2c(C)nc3onc(-c4ccccc4)c3c2cc1OC", "values": [{"measurement": "IC50", "setting": "Fatty acid synthase [4]", "result": "7.51 µM (active)"}, {"measurement": "IC50", "setting": "Fatty acid synthase [5]", "result": "19.4 µM (active)"}]}
{"smiles": "CCC(=O)OC1(C)C(=O)C=C2C=C(C3CC3)OC=C2C1=O", "note": "(centres undefined)", "values": [{"measurement": "EC50", "setting": "[6]", "result": "> 300 µM (not active)"}, {"measurement": "IC50", "setting": "Genome polyprotein", "result": "> 100 µM (active)"}, {"measurement": "EC50", "setting": "[7]", "result": "30.4 µM (active)"}]}
{"smiles": "O=S(=O)(NCCc1csc(-c2ccccc2)n1)c1cccnc1", "values": [{"measurement": "EC50", "setting": "[2]", "result": "3.76 µM (active)"}]}
{"smiles": "CN(C)CCCN(C(=O)c1ccc(S(=O)(=O)N2CCc3ccccc32)cc1)c1nc2ccc(F)cc2s1", "values": [{"measurement": "EC50", "setting": "[2]", "result": "2.66 µM (active)"}]}
{"smiles": "Cc1ccc([N+](=O)[O-])cc1S(=O)(=O)NCC1COc2ccccc2O1", "note": "(centres undefined)", "values": [{"measurement": "IC50", "setting": "Fatty acid synthase [4]", "result": "5.17 µM (active)"}, {"measurement": "IC50", "setting": "Fatty acid synthase [5]", "result": "4.43 µM (active)"}]}
{"smiles": "COCCNC(=O)C[C@H]1CC[C@@H]2[C@H](COc3ccc(NC(=O)Nc4cccc(F)c4)cc3C(=O)N2C)O1", "values": [{"measurement": "AC50", "setting": "[3]", "result": "6.86 µM (active)"}]}
{"smiles": "C/C=C/c1ccc2c(c1)O[C@@H](CN(C)C(=O)Nc1ccc(F)cc1)[C@@H](C)CN([C@@H](C)CO)S2(=O)=O", "values": [{"measurement": "AC50", "setting": "[3]", "result": "4.65 µM (active)"}]}
{"smiles": "C[C@@H]1CCCCO[C@@H](CN(C)CC2CCCCC2)[C@@H](C)CN([C@H](C)CO)C(=O)c2cc(NS(=O)(=O)c3ccc(Cl)cc3)ccc2O1", "values": [{"measurement": "AC50", "setting": "[8]", "result": "2.18 µM (active)"}]}
{"smiles": "O=C(CN1CCCCCC1)N1c2ccccc2Sc2ccc(C(F)(F)F)cc21", "values": [{"measurement": "EC50", "setting": "[9]", "result": "7.61 µM (active)"}]}
